Data from PubChem BioAssay (NCI).
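Test compounds were applied to cells in 96-well plates for 48 hours at 5 doses. The concentration for full growth arrest is given as TGI.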

How the values were obtained:
Test in all cases: NCI-60 cell line screen, 48 h
[1] = test system: COLO 205 colon
[2] = test system: 786-0 renal
[3] = test system: OVCAR-4 ovarian
[4] = test system: NCI/ADR-RES ovarian
[5] = test system: BT-549 breast
[6] = test system: OVCAR-5 ovarian
[7] = test system: SK-OV-3 ovarian
[8] = test system: RPMI-8226 leukemia
[9] = test system: MDA-MB-231 breast
[10] = test system: ACHN renal
[11] = test system: A498 renal
[12] = test system: UACC-62 melanoma
[13] = test system: HS 578T breast
[14] = test system: CCRF-CEM leukemia
[15] = test system: M14 melanoma
[16] = test system: UO-31 renal
[17] = test system: PC-3 prostate
[18] = test system: SK-MEL-2 melanoma
[19] = test system: IGROV1 ovarian
[20] = test system: OVCAR-3 ovarian
[21] = test system: HCT-116 colon
[22] = test system: EKVX NSCLC
[23] = test system: KM12 colon
[24] = test system: MOLT-4 leukemia
[25] = test system: UACC-257 melanoma
[26] = test system: SN12C renal
[27] = test system: SW-620 colon
[28] = test system: NCI-H226 lung
[29] = test system: MDA-N
[30] = test system: MDA-MB-435
[31] = test system: SF-268 CNS
[32] = test system: SNB-19 CNS
[33] = test system: OVCAR-8 ovarian
[34] = test system: HCT-15 colon
[35] = test system: NCI-H460 lung
[36] = test system: A549 NSCLC
[37] = test system: HOP-62 NSCLC
[38] = test system: DU-145 prostate
[39] = test system: T-47D breast
[40] = test system: SK-MEL-5 melanoma
[41] = test system: SNB-75 CNS
[42] = test system: RXF 393 renal
[43] = test system: MCF7 breast
[44] = test system: SF-295 CNS
[45] = test system: MALME-3M melanoma
[46] = test system: HT29 colon
[47] = test system: NCI-H23 lung
[48] = test system: U251 CNS
[49] = test system: CAKI-1 renal
[50] = test system: HCC-2998 colon
[51] = test system: NCI-H522 lung
[52] = test system: SK-MEL-28 melanoma
[53] = test system: TK-10 renal
[54] = test system: SF-539 CNS
[55] = test system: LOX IMVI melanoma
[56] = test system: HOP-92 NSCLC
[57] = test system: SR leukemia
[58] = test system: HL-60(TB) leukemia
[59] = test system: K-562 leukemia

Compound: COc1ccc(-c2nc3ccccc3c(=O)[nH]2)c(OC)c1
- TGI [1]: > 100 µM
- TGI [2]: > 100 µM
- TGI [3]: > 100 µM
- TGI [4]: > 100 µM
- TGI [5]: > 100 µM
- TGI [6]: > 100 µM
- TGI [7]: > 100 µM
- TGI [8]: 83.4 µM
- TGI [9]: > 100 µM
- TGI [10]: > 100 µM
- TGI [11]: > 100 µM
- TGI [12]: > 100 µM
- TGI [13]: > 100 µM
- TGI [14]: > 100 µM
- TGI [15]: > 100 µM
- TGI [16]: > 100 µM
- TGI [17]: > 100 µM
- TGI [18]: > 100 µM
- TGI [19]: > 100 µM
- TGI [20]: > 100 µM
- TGI [21]: > 100 µM
- TGI [22]: > 100 µM
- TGI [23]: > 100 µM
- TGI [24]: > 100 µM
- TGI [25]: > 100 µM
- TGI [26]: > 100 µM
- TGI [27]: > 100 µM
- TGI [28]: > 100 µM
- TGI [29]: > 100 µM
- TGI [30]: > 100 µM
- TGI [31]: > 100 µM
- TGI [32]: > 100 µM
- TGI [33]: > 100 µM
- TGI [34]: > 100 µM
- TGI [35]: > 100 µM
- TGI [36]: > 100 µM
- TGI [37]: > 100 µM
- TGI [38]: > 100 µM
- TGI [39]: > 100 µM
- TGI [40]: > 100 µM
- TGI [41]: > 100 µM
- TGI [42]: > 100 µM
- TGI [43]: > 100 µM
- TGI [44]: > 100 µM
- TGI [45]: > 100 µM
- TGI [46]: > 100 µM
- TGI [47]: > 100 µM
- TGI [48]: > 100 µM
- TGI [49]: > 100 µM
- TGI [50]: > 100 µM

Compound: COc1ccc2c(c1)CN1C(=N2)CSC1c1c(Cl)cccc1[N+](=O)[O-] (configuration not stated)
- TGI [1]: 67.9 µM
- TGI [2]: 76.9 µM
- TGI [3]: > 100 µM
- TGI [4]: 46.4 µM
- TGI [51]: 68.6 µM
- TGI [52]: 44.3 µM
- TGI [5]: 31.9 µM
- TGI [6]: 95.7 µM
- TGI [7]: > 100 µM
- TGI [8]: 34.1 µM
- TGI [9]: 34.6 µM
- TGI [10]: > 100 µM
- TGI [12]: 37 µM
- TGI [13]: > 100 µM
- TGI [15]: 37.3 µM
- TGI [16]: 65.1 µM
- TGI [17]: 66.3 µM
- TGI [18]: 34.1 µM
- TGI [19]: > 100 µM
- TGI [53]: 84.1 µM
- TGI [21]: 29.5 µM
- TGI [22]: 77.2 µM
- TGI [54]: 33 µM
- TGI [23]: 44.2 µM
- TGI [24]: 34.8 µM
- TGI [25]: 42.6 µM
- TGI [55]: 34.9 µM
- TGI [56]: 55.7 µM
- TGI [26]: 35 µM
- TGI [27]: 50.6 µM
- TGI [28]: 32.2 µM
- TGI [29]: 40.9 µM
- TGI [30]: 47.5 µM
- TGI [31]: 53.8 µM
- TGI [32]: > 100 µM
- TGI [33]: > 100 µM
- TGI [34]: 40.3 µM
- TGI [57]: 39 µM
- TGI [35]: 31.5 µM
- TGI [36]: > 100 µM
- TGI [37]: > 100 µM
- TGI [39]: > 100 µM
- TGI [40]: 27 µM
- TGI [41]: 74.3 µM
- TGI [42]: 52.2 µM
- TGI [43]: 30 µM
- TGI [44]: 52.6 µM
- TGI [45]: > 100 µM
- TGI [58]: 43.8 µM
- TGI [46]: 38.1 µM
- TGI [47]: 56.1 µM
- TGI [48]: 37 µM
- TGI [49]: 64.2 µM
- TGI [59]: 61.1 µM
- TGI [50]: 41.6 µM

Compound: CCCCCCCCCCCC(=O)c1c(O)cc(C)oc1=O
- TGI [1]: > 100 µM
- TGI [2]: > 100 µM
- TGI [4]: > 100 µM
- TGI [51]: > 100 µM
- TGI [52]: > 100 µM
- TGI [5]: > 100 µM
- TGI [6]: > 100 µM
- TGI [7]: > 100 µM
- TGI [8]: > 100 µM
- TGI [9]: > 100 µM
- TGI [10]: > 100 µM
- TGI [11]: > 100 µM
- TGI [12]: > 100 µM
- TGI [13]: > 100 µM
- TGI [14]: > 100 µM
- TGI [15]: > 100 µM
- TGI [16]: > 100 µM
- TGI [17]: > 100 µM
- TGI [18]: > 100 µM
- TGI [19]: > 100 µM
- TGI [20]: > 100 µM
- TGI [53]: > 100 µM
- TGI [21]: > 100 µM
- TGI [22]: > 100 µM
- TGI [54]: 93.3 µM
- TGI [23]: > 100 µM
- TGI [24]: > 100 µM
- TGI [25]: > 100 µM
- TGI [55]: > 100 µM
- TGI [26]: > 100 µM
- TGI [27]: > 100 µM
- TGI [28]: > 100 µM
- TGI [29]: > 100 µM
- TGI [30]: > 100 µM
- TGI [31]: > 100 µM
- TGI [32]: > 100 µM
- TGI [33]: > 100 µM
- TGI [34]: > 100 µM
- TGI [35]: > 100 µM
- TGI [36]: > 100 µM
- TGI [37]: > 100 µM
- TGI [38]: > 100 µM
- TGI [39]: > 100 µM
- TGI [40]: 68.6 µM
- TGI [41]: > 100 µM
- TGI [43]: > 100 µM
- TGI [44]: > 100 µM
- TGI [45]: > 100 µM
- TGI [58]: > 100 µM
- TGI [46]: > 100 µM
- TGI [47]: > 100 µM
- TGI [48]: > 100 µM
- TGI [49]: > 100 µM
- TGI [59]: > 100 µM
- TGI [50]: > 100 µM

Compound: N#Cc1cc(-c2nc3ccc(F)cc3s2)ccc1N
- TGI [1]: > 100 µM
- TGI [2]: > 100 µM
- TGI [3]: > 100 µM
- TGI [4]: > 100 µM
- TGI [51]: > 100 µM
- TGI [5]: > 100 µM
- TGI [6]: > 100 µM
- TGI [7]: 96.6 µM
- TGI [8]: > 100 µM
- TGI [9]: > 100 µM
- TGI [10]: > 100 µM
- TGI [11]: > 100 µM
- TGI [12]: > 100 µM
- TGI [13]: > 100 µM
- TGI [14]: > 100 µM
- TGI [15]: > 100 µM
- TGI [16]: > 100 µM
- TGI [17]: > 100 µM
- TGI [19]: > 100 µM
- TGI [20]: > 100 µM
- TGI [53]: > 100 µM
- TGI [21]: > 100 µM
- TGI [22]: > 100 µM
- TGI [54]: > 100 µM
- TGI [23]: > 100 µM
- TGI [24]: > 100 µM
- TGI [25]: > 100 µM
- TGI [55]: > 100 µM
- TGI [56]: > 100 µM
- TGI [26]: > 100 µM
- TGI [27]: > 100 µM
- TGI [28]: > 100 µM
- TGI [29]: > 100 µM
- TGI [30]: > 100 µM
- TGI [31]: > 100 µM
- TGI [32]: > 100 µM
- TGI [33]: > 100 µM
- TGI [34]: > 100 µM
- TGI [35]: > 100 µM
- TGI [36]: > 100 µM
- TGI [37]: > 100 µM
- TGI [38]: > 100 µM
- TGI [39]: > 100 µM
- TGI [40]: > 100 µM
- TGI [41]: > 100 µM
- TGI [42]: > 100 µM
- TGI [43]: > 100 µM
- TGI [44]: > 100 µM
- TGI [45]: > 100 µM
- TGI [58]: > 100 µM
- TGI [46]: > 100 µM
- TGI [47]: > 100 µM
- TGI [48]: > 100 µM
- TGI [49]: > 100 µM
- TGI [59]: > 100 µM

Compound: CNc1cc(OCc2ccccc2)c(OC)cc1C(=O)N1CCC[C@H]1CO
- TGI [1]: > 100 µM
- TGI [2]: > 100 µM
- TGI [3]: > 100 µM
- TGI [4]: > 100 µM
- TGI [51]: > 100 µM
- TGI [52]: > 100 µM
- TGI [5]: > 100 µM
- TGI [6]: > 100 µM
- TGI [7]: > 100 µM
- TGI [9]: > 100 µM
- TGI [10]: > 100 µM
- TGI [11]: > 100 µM
- TGI [12]: > 100 µM
- TGI [13]: > 100 µM
- TGI [14]: > 100 µM
- TGI [15]: > 100 µM
- TGI [16]: > 100 µM
- TGI [17]: > 100 µM
- TGI [18]: > 100 µM
- TGI [19]: > 100 µM
- TGI [53]: > 100 µM
- TGI [21]: > 100 µM
- TGI [22]: > 100 µM
- TGI [54]: > 100 µM
- TGI [23]: > 100 µM
- TGI [24]: > 100 µM
- TGI [25]: > 100 µM
- TGI [55]: > 100 µM
- TGI [26]: > 100 µM
- TGI [27]: > 100 µM
- TGI [28]: > 100 µM
- TGI [29]: > 100 µM
- TGI [30]: > 100 µM
- TGI [31]: > 100 µM
- TGI [32]: > 100 µM
- TGI [33]: > 100 µM
- TGI [34]: > 100 µM
- TGI [36]: > 100 µM
- TGI [37]: > 100 µM
- TGI [38]: > 100 µM
- TGI [39]: > 100 µM
- TGI [40]: > 100 µM
- TGI [41]: > 100 µM
- TGI [42]: > 100 µM
- TGI [43]: > 100 µM
- TGI [44]: > 100 µM
- TGI [45]: > 100 µM
- TGI [58]: > 100 µM
- TGI [46]: > 100 µM
- TGI [47]: > 100 µM
- TGI [48]: > 100 µM
- TGI [49]: > 100 µM
